Assay results from US9085555B2, “Complement pathway modulators and uses thereof” (priority 2011, dated 2015).
pIC50: −log10 of the molar value.

Target: Factor D (Homo sapiens (Human), UniProt P00746)
Assay: biochemical
Assay type: biochemical
Details: read-out: IC50

Factor D, sequence (P00746 26-253): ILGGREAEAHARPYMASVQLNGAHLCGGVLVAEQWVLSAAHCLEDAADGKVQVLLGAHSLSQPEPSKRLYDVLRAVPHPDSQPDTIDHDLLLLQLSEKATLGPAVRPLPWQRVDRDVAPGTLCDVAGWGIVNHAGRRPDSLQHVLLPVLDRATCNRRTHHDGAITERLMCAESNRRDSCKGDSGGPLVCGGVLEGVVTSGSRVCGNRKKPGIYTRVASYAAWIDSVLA

Row | Compound | pIC50
1 | CO[C@H]1[C@@H](C(=O)N[C@H](C)c2cccc(Cl)c2F)N(C(=O)Cn2nc(C(C)=O)c3cccnc32)C[C@@H]1F [Example 624, (2S,3S,4S)-1-[2-(3-Acetyl-pyrazolo[3,4-b]pyridin-1-yl)-acetyl]-4-fluoro-3-methoxy-pyrrolidine-2-carboxylic acid [(R)-1-(3-chloro-2-fluoro-phenyl)-ethyl]-amide] | 7.59
2 | CN[C@H]1C[C@@H](C(=O)NCc2cccc(Cl)c2F)N(C(=O)Nc2cn(C(N)=O)c3ccccc23)C1 [Example 425, 2S,4S)-4-Methylamino-pyrrolidine-1,2-dicarboxylic acid 1-[(1-carbamoyl-1H-indol-3-yl)-amide]2-(3-chloro-2-fluoro-benzylamide] | 5.91
3 | COC[C@@]12C[C@@H](C(=O)NCc3cccc(Cl)c3F)N(C(=O)Nc3cn(C(N)=O)c4ccccc34)[C@@H]1C2 [Example 184, (1R,3S,5S)-5-Methoxymethyl-2-aza-bicyclo[3.1.0]hexane-2,3-dicarboxylic acid 2-[(1-carbamoyl-1H-indol-3-yl)-amide] 3-(3-chloro-2-fluoro-benzylamide)] | 8.05
4 | C[C@@H](NC(=O)[C@@H]1C[C@H](N)CN1C(=O)Nc1cn(C(N)=O)c2ccccc12)c1cccc(Cl)c1 [Example 69, (2S,4S)-4-Amino-pyrrolidine-1,2-dicarboxylic acid 1-[(1-carbamoyl-1H-indol-3-yl)-amide] 2-{[(R)-1-(3-chloro-phenyl)-ethyl]-amide}] | 5.98
5 | CC(=O)c1cn(CC(=O)N2C[C@](C)(F)C[C@H]2C(=O)NCc2cccc(Cl)c2F)c2cnccc12 [Example 482, (2S,4R)-1-[2-(3-Acetyl-pyrrolo[2,3-c]pyridin-1-yl)-acetyl]-4-fluoro-4-methyl-pyrrolidine-2-carboxylic acid 3-chloro-2-fluoro-benzylamide] | 6.73
6 | CC(=O)c1nn(CC(=O)N2[C@@H]3C[C@@H]3C[C@H]2C(=O)Nc2cccc(C(F)(F)F)n2)c2cnccc12 [Example 733, (1R,3S,5R)-2-[2-(3-Acetyl-pyrazolo[3,4-c]pyridin-1-yl)-acetyl]-2-aza-bicyclo[3.1.0] hexane-3-carboxylic acid (6-trifluoromethyl-pyridin-2-yl)-amide] | 7.60
7 | C=CCOc1ccc2c(c1)c(NC(=O)N1CCC[C@H]1C(=O)Nc1cccc(OC(F)(F)F)c1)cn2C(N)=O [Example 335, (S)-Pyrrolidine-1,2-dicarboxylic acid 1-[(5-allyloxy-1-carbamoyl-1H-indol-3-yl)-amide] 2-[(3-trifluoromethoxy-phenyl)-amide]] | 6.26
8 | NC(=O)n1cc(NC(=O)N2[C@@H]3C[C@@H]3C[C@H]2C(=O)N[C@H](CO)c2cccc(Cl)c2F)c2ccccc21 [Example 203, (1R,3S,5R)-2-Aza-bicyclo[3.1.0]hexane-2,3-dicarboxylic acid 2-[(1-carbamoyl-1H-indol-3-yl)-amide] 3-{[(S)-1-(3-chloro-2-fluoro-phenyl)-2-hydroxy-ethyl]-amide}] | 8.22
9 | Cc1cc2c(C(N)=O)nn(CC(=O)N3[C@@H]4C[C@@H]4C[C@H]3C(=O)N[C@H](C)c3cccc(Cl)c3F)c2c(C)n1 [Example 696, 1-(2-{(1R,3S,5R)-3-[(R)-1-(3-Chloro-2-fluoro-phenyl)-ethylcarbamoyl]-2-aza-bicyclo[3.1.0]hex-2-yl}-2-oxo-ethyl)-5,7-dimethyl-1H-pyrazolo[3,4-c]pyridine-3-carboxylic acid amide] | 7.00
10 | NC(=O)n1cc(NC(=O)N2[C@@H](c3ccccc3)CC[C@H]2C(=O)Nc2cccc(OC(F)(F)F)c2)c2ccccc21 [Example 273, (2S,5R)-5-Phenyl-pyrrolidine-1,2-dicarboxylic acid 1-[(1-carbamoyl-1H-indol-3-yl)-amide] 2-[(3-trifluoromethoxy-phenyl)-amide]] | 5.65
11 | CCc1cccc(NC(=O)[C@@H]2CCCN2C(=O)Nc2cn(C(N)=O)c3ccccc23)n1 [Example 238, (S)-Pyrrolidine-1,2-dicarboxylic acid 1-[(1-carbamoyl-1H-indol-3-yl)-amide] 2-[(6-ethyl-pyridin-2-yl)-amide]] | 6.19
12 | NC(=O)n1cc(NC(=O)N2[C@@H]3C[C@@H]3C[C@H]2C(=O)NCc2cccc(Cl)c2F)c2cc(OCCO)ccc21 [Example 379, (1R,3S,5R)-2-aza-bicyclo[3.1.0]hexane-2,3-dicarboxylic acid 2-{[1-carbamoyl-5-(2-hydroxy-ethoxy)-1H-indol-3-yl]-amide}3-(3-chloro-2-fluoro-benzylamide)] | 8.30
13 | CC(=O)c1nn(CC(=O)N2[C@@H]3C[C@@H]3C[C@H]2C(=O)NCc2cccc(Cl)c2F)c2cc(C(=O)O)ccc12 [Example 639, 3-Acetyl-1-{2-[(1R,3S,5R)-3-(3-chloro-2-fluoro-benzylcarbamoyl)-2-aza-bicyclo[3.1.0]hex-2-yl]-2-oxo-ethyl}-1H-indazole-6-carboxylic acid] | 7.21
14 | CC(=O)n1cc(NC(=O)N2C[C@@](F)(CN)C[C@H]2C(=O)NCc2cccc(Cl)c2F)c2ccccc21 [Example 412, 2S,4S)-4-Aminomethyl-4-fluoro-pyrrolidine-1,2-dicarboxylic acid 1-[(1-acetyl-1H-indol-3-yl)-amide]2-(3-chloro-2-fluoro-benzylamide] | 7.85
15 | NC(=O)c1nn(CC(=O)N2[C@@H]3C[C@@H]3C[C@H]2C(=O)Nc2cccc(-c3c(F)cccc3F)n2)c2cnccc12 [Example 721, 1-(2-{(1R,3S,5R)-3-[6-(2,6-Difluoro-phenyl)-pyridin-2-ylcarbamoyl]-2-aza-bicyclo[3.1.0]hex-2-yl}-2-oxo-ethyl)-1H-pyrazolo[3,4-c]pyridine-3-carboxamide] | 7.01
16 | C[C@@H]1CC[C@@H](C(=O)Nc2cccc(OC(F)(F)F)c2)N1C(=O)Nc1cn(C(N)=O)c2ccccc12 [Example 336, (2S,5R)-5-Methyl-pyrrolidine-1,2-dicarboxylic acid 1-[(1-carbamoyl-1H-indol-3-yl)-amide]2-[(3-trifluoromethoxy-phenyl)-amide]] | 6.12
17 | NC(=O)n1cc(NC(=O)N2C3CC3C[C@H]2C(=O)Nc2ccncc2F)c2ccccc21 (stereo partly drawn) [Example 185, (1R,3S,5R)-2-Aza-bicyclo[3.1.0]hexane-2,3-dicarboxylic acid 2-[(1-carbamoyl-1H-indol-3-yl)-amide] 3-[(3-fluoro-pyridin-4-yl)-amide]] | 6.26
18 | CC(=O)c1cn(CC(=O)N2[C@@H]3C[C@@H]3C[C@H]2C(=O)NCc2cccc(Cl)c2F)c2cc(O)ccc12 [Example 584, (1R,3S,5R)-2-[2-(3-Acetyl-6-hydroxy-indol-1-yl)-acetyl]-2-aza-bicyclo[3.1.0]hexane-3-carboxylic acid 3-chloro-2-fluoro-benzylamide] | 7.42
19 | NC(=O)n1cc(NC(=O)N2CC[C@@H](F)[C@H]2C(=O)NCc2cccc(Cl)c2F)c2ccccc21 [Example 190, (2R,3R)-3-Fluoro-pyrrolidine-1,2-dicarboxylic acid 1-[(1-carbamoyl-1H-indol-3-yl)-amide] 2-(3-chloro-2-fluoro-benzylamide)] | 7.70
20 | (2S,4S)-4-Amino-pyrrolidine-1,2-dicarboxylic acid 1-[(1-carbamoyl-1H-indol-3-yl)-amide] 2-[(2-phenoxy-ethyl)-amide] [Example 91] | 5.53
21 | NC(=O)n1cc(NC(=O)N2C[C@H](F)C[C@H]2C(=O)NCc2cncc(C(F)(F)F)c2)c2ccccc21 [Example 305, (2S,4R)-4-Fluoro-pyrrolidine-1,2-dicarboxylic acid 1-[(1-carbamoyl-1H-indol-3-yl)-amide] 2-[(5-trifluoromethyl-pyridin-3-ylmethyl)-amide]] | 5.87
22 | C[C@@]1(F)C[C@@H](C(=O)N[C@H](CCO)c2cccc(Cl)c2F)N(C(=O)Nc2cn(C(N)=O)c3ccccc23)C1 [Example 229, (2S,4R)-4-Fluoro-4-methyl-pyrrolidine-1,2-dicarboxylic acid 1-[(1-carbamoyl-1H-indol-3-yl)-amide] 2-{[(R)-1-(3-chloro-2-fluoro-phenyl)-3-hydroxy-propyl]-amide}] | 7.54
23 | CC(=O)c1cn(CC(=O)N2[C@@H]3C[C@@H]3C[C@H]2C(=O)NCc2cc(C#N)cc(Cl)c2F)c2ccccc12 [Example 527, (1R,3S,5R)-2-[2-(3-Acetyl-indol-1-yl)-acetyl]-2-aza-bicyclo[3.1.0]hexane-3-carboxylic acid 3-chloro-5-cyano-2-fluoro-benzylamide] | 6.32
24 | NC(=O)n1cc(CC(=O)N2[C@@H]3C[C@@H]3C[C@H]2C(=O)N[C@H](CO)c2cccc(Cl)c2F)c2ccccc21 [Example 449, 3-(2-{(1R,3S,5R)-3-[(S)-1-(3-Chloro-2-fluoro-phenyl)-2-hydroxy-ethylcarbamoyl]-2-aza-bicyclo[3.1.0]hex-2-yl}-2-oxo-ethyl)-indole-1-carboxylic acid amide] | 7.29
25 | CC(=O)c1cn(CC(=O)N2[C@@H]3C[C@@H]3C[C@H]2C(=O)NCc2cccc(Cl)c2F)c2cc(C(=O)O)ccc12 [Example 598, 3-Acetyl-1-{2-[(1R,3S,5R)-3-(3-chloro-2-fluoro-benzylcarbamoyl)-2-aza-bicyclo[3.1.0]hex-2-yl]-2-oxo-ethyl}-1H-indole-6-carboxylic acid] | 7.85
26 | NC(=O)n1cc(NC(=O)N2C[C@H](F)C[C@H]2CNS(=O)(=O)c2cccc(OC(F)(F)F)c2)c2ccccc21 [Example 109, 3-({(2S,4R)-4-Fluoro-2-[(3-trifluoromethoxy-benzenesulfonylamino)-methyl]-pyrrolidine-1-carbonyl}-amino)-indole-1-carboxylic acid amide] | 5.57
27 | CC(C)(C)n1nnnc1-c1cc(Cl)c(F)c(CNC(=O)[C@@H]2C[C@@H](F)CN2C(=O)Nc2cn(C(N)=O)c3ccccc23)c1 [Example 347, (2S,4R)-4-Fluoro-pyrrolidine-1,2-dicarboxylic acid 2-[5-(1-tert-butyl-1H-tetrazol-5-yl)-3-chloro-2-fluoro-benzylamide]1-[(1-carbamoyl-1H-indol-3-yl)-amide]] | 6.17
28 | Cc1ncc(Br)cc1NC(=O)[C@@H]1C[C@@H](F)CN1C(=O)Nc1cn(C(N)=O)c2ccccc12 [Example 168, (2S,4R)-4-Fluoro-pyrrolidine-1,2-dicarboxylic acid 2-[(5-bromo-2-methyl-pyridin-3-yl)-amide] 1-[(1-carbamoyl-1H-indol-3-yl)-amide]] | 6.60
